Measured values reported in patent US12139461B1, “Piperidine compounds as PDE5 inhibitors” (KING SAUD UNIVERSITY, priority 2024, dated 2024).
Values joined by “and” are separate entries in the source; they are usually repeats but may differ in a detail not shown here. Equal values may be shown once.

Tests used:
[1] = target: Phosphodiesterase type 5 (PDE5) (Homo sapiens (Human), UniProt O76074); test: In vitro phosphodiesterase type 5 (PDE5) inhibition assay; type: biochemical; conditions: purified PDE5, IMAP FP assay
male rats = test: Copulatory behavior testing; type: in vivo, rat; conditions: 5 mg/kg oral; for mean intromission interval (MII): MII=EL/IF
Method: Sexually mature Wistar albino male and female rats weighing 150-180 g (10-14 weeks old) were used in our study. Males were trained for sexual behavior with estrus females, that is, two hours a day for one week, before the investigations. Females were brought into the estrous phase artificially by sequential injection of estradiol benzoate (Sigma) (25 μg/animal) and progesterone (Sigma) (250 μg/animal) subcutaneously, 48 and 4 hours before pairing, respectively. Only those sexually active animals were used subsequently in the study. Sexually active rats were isolated and housed in separate cages at room temperature (24±2° C.) on a reversed day/night cycle with a relative humidity of 50-55% during the experimental period. All sexual studies were performed in a calm laboratory condition under subdued light. For the toxicity study, adult Wistar albino male rats were used separately. Rats were obtained from the Experimental Animal Care Center, College of Pharmacy, King Saud University. Animals were fed with a standard pellet diet and provided water ad libitum. All experiments were performed per the protocols and recommendations of the NIH Guide for the Care and Use of Laboratory Animals and the legal requirements of King Saud University for investigations on humans and animals.
Based on a preliminary study to select the appropriate dose for the promising synthesized compounds, the compounds were administered separately to sexually experienced male rats by oral gavage at 5 mg/kg in a 0.5% sodium carboxymethyl cellulose (CMC) vehicle. […] All solutions were freshly prepared at a concentration that allowed the administration of 1 ml/kg.
After drug treatment, rats were housed separately in transparent cages for acclimation. Thirty minutes after drug treatment, a sexually receptive female rat with estrous phase was introduced in each cage for 30 min and the following parameters of the copulatory behavior were recorded: namely mount latency (ML; time from introduction of the female until the first mount with or without penile insertion, it measures the degree of arousal or sexual interest or libido of the male), mount frequency (MF; the number of mounts until ejaculation, it is a measure of the degree of the male's sexual interest or libido), intromission latency (IL; time from introduction of the female until the first intromission, it measures the degree of sexual excitement and erection), intromission frequency (IF; number of vaginal penetrations until ejaculation, it measures the degree of erection), ejaculation latency (EL; time from the first intromission until ejaculation, it determines the excellent organization of copulation in rats) and post-ejaculatory interval (PEI; time interval between an ejaculation and the following first mount, it measures the refractory period that comes after ejaculation). Latency values represent the number of seconds that elapses from the introduction of the female into the copulatory arena until the male executes the first mount, intromission or ejaculation. Frequency values represent the number of ejaculations, mounts or intromission recorded during the copulatory test.
Depending on these parameters, the following can be calculated: Copulatory efficiency (CE)=(IF/MF)×100 and mean intromission interval (MII)=EL/IF as previously described (Aydogan F. et al., J Ethnopharmacol 257 (2020) 112868; Besong E B. et al., Biochem Res Int 2018 (2018) 2869727, the contents of each of which are hereby incorporated by reference in their entirety). Experiments were repeated blindly three times using new fresh (unused) animals in each experiment.

[2] = tested on: sexually experienced male rats; test: Penile erection index (noncontact erection test); type: in vivo, rat; conditions: Rattus norvegicus, oral, linear regression of proportion of responding rats, read-out: effective dose ED50 (dose required to give 50% responding rats)
Method: The penile erection index is an established means of determining the erection promoting properties of a substance. Determination of penile erection in a noncontact position was calculated as reported previously (Haripriya V M. et al., Andrologia 51 (2019) e13180; Sharma V. et al., J Ethnopharmacol 143 (2012) 201-206, the contents of each of which are hereby incorporated by reference in their entirety). The sexually experienced male rats of all groups were given the treatment 30 minutes before experimentation. The number of animals for each dose was ten rats in each experiment. […] The results shown are the average of three separate experiments. Control animals were given 0.5% CMC as a vehicle.
The rats of each group were placed in the observation cages (five at a time) divided into half by two sheets of metal mesh, preventing contact but allowing auditory, visual and olfactory stimuli. After a 5-min adaptation period, the test was started by placing an estrus female on the other side of the cage. Penile erection was recorded when the rats bent down to lick their erect penis. Homosexual mounting was also counted when a male rat mounted another male rat performing pelvic thrusts with or without a penile erection. […] The effective dose ED50 (the dose required to give 50% responding rats) for examined compounds was calculated using linear regression analysis by GraphPad software with the proportion of responding rats as the input data and expressed as μmol/kg.

Row | Structure (SMILES) | IC50 [1] | melting point | ejaculation latency (EL) (male rats) | intromission frequency (IF) (male rats) | intromission latency (IL) (male rats) | mount frequency (MF) (male rats) | mount latency (ML) (male rats) | post-ejaculatory interval (PEI) (male rats) | copulatory efficiency (CE) (male rats; CE=(IF/MF)x100) | mean intromission interval (MII) (male rats) | other results
1 | COc1ccccc1S(=O)(=O)N1CCC(Cc2ccccc2)CC1 [Compound C23, 4-Benzyl-1-((2-methoxyphenyl)sulfonyl)piperidine] | 207 ± 4.03 nM | 95 to 97 °C | – | – | – | – | – | – | – | – | –
2 | COc1ccc(S(=O)(=O)N2CCC(c3ccccc3)CC2)cc1OC [Compound C2, 1-((3,4-Dimethoxyphenyl)sulfonyl)-4-phenylpiperidine] | 185 ± 3.61 nM | 207 to 209 °C | – | – | – | – | – | – | – | – | –
3 | O=S(=O)(c1ccc(Cl)c(Cl)c1)N1CCC(c2ccccc2)CC1 [Compound C11, 1-((3,4-Dichlorophenyl)sulfonyl)-4-phenylpiperidine] | 56.7 nM and 56.8 nM | 217 to 219 °C | 318.1 s | 8.3 | 205.5 s | 17.1 | 94.6 s | 393.5 s | 48.5% | 39.6 | efficacy in improving copulatory behavior (male rats): more pronounced; ED50 [2]: 12.7 µmol/kg
4 | Cc1ccc(S(=O)(=O)N2CCC(Cc3ccccc3)CC2)cc1 [Compound C28] | 56.5 nM | – | 332.8 s | 9.1 | 195.5 s | 17.5 | 94.6 s | 393.3 s | 52.3% | 36.6 | efficacy in improving copulatory behavior (male rats): more pronounced
5 | COc1ccc(S(=O)(=O)N2CCC(Cc3ccccc3)CC2)c(OC)c1 [Compound C24, 1-((2,4-Dimethoxyphenyl)sulfonyl)-4-Benzylpiperidine] | 56.3 nM and 56.4 nM | – | 377.6 s | 9.3 | 193.8 s | 17.3 | 85.0 s | 370.0 s | 54.0% | 41.2 | efficacy in improving copulatory behavior (male rats): more pronounced
6 | COc1ccc(S(=O)(=O)N2CCC(Cc3ccccc3)CC2)cc1OC [Compound C20] | 63.3 nM | – | prolonged | 7.6 | 229.1 s | 16.0 | 95.5 s | 401.8 s | did not alter | did not alter | ML, IL, IF, MF and EL compared to untreated controls (male rats): not significantly different; copulatory efficiency (CE) (male rats; CE=(IF/MF)x100, listed as C 20): 48.5%; mean intromission interval (MII) (male rats; listed as C 20): 44.7; ejaculation latency (EL) (male rats; listed as C 20): 325.1 s
7 | Cc1cc(C)c(S(=O)(=O)N2CCC(Cc3ccccc3)CC2)c(C)c1 [Compound C26, 4-Benzyl-1-(mesitylsulfonyl)piperidine] | 107 ± 2.09 nM | 70 to 72 °C | – | – | – | – | – | – | – | – | –
8 | Cc1cc(C)c(S(=O)(=O)N2CCC(c3ccccc3)CC2)c(C)c1 [Compound C6, 1-(Mesitylsulfonyl)-4-phenylpiperidine] | 296 ± 5.77 nM | 157 to 159 °C | – | – | – | – | – | – | – | – | –
9 | COc1ccc(S(=O)(=O)N2CCC(c3ccccc3)CC2)c(OC)c1 [Compound C1, 1-((2,4-Dimethoxyphenyl)sulfonyl)-4-phenylpiperidine] | 106 ± 2.07 nM | 191 to 193 °C | – | – | – | – | – | – | – | – | –
10 | COc1ccccc1S(=O)(=O)N1CCC(c2ccccc2)CC1 [Compound C3, 1-((2-Methoxyphenyl)sulfonyl)-4-phenylpiperidine] | 85.2 ± 1.66 nM | 173 to 175 °C | – | – | – | – | – | – | – | – | –
11 | O=S(=O)(c1ccc(Cl)c(Cl)c1)N1CCC(Cc2ccccc2)CC1 [Compound C19, 4-Benzyl-1-((3,4-dichlorophenyl)sulfonyl)piperidine] | 102 ± 1.99 nM | 166 to 168 °C | – | – | – | – | – | – | – | – | –
12 | COc1ccc(CNC(=O)CN2CCC(Cc3ccccc3)CC2)cc1 [Compound C33, 2-(4-Benzylpiperidin-1-yl)-N-(4-methoxybenzyl)acetamide] | 99.8 ± 1.94 nM | 89 to 91 °C | – | – | – | – | – | – | – | – | –
13 | CCCc1nn(C)c2c(=O)[nH]c(-c3cc(S(=O)(=O)N4CCN(C)CC4)ccc3OCC)nc12 [sildenafil, reference compound] | – | – | 426.6 s | 17.8 | 135.1 s | 26.6 | 68.5 s | 294.5 s | – | 24.3 | ED50 [2]: 8.52 µmol/kg
14 | O=C(CN1CCC(Cc2ccccc2)CC1)Nc1ccccc1 [Compound C30] | 59 nM | – | 324.6 s | 6.8 | Weak but significant reductions | 14.8 | 95.5 s | 411.8 s | did not alter | did not alter | ML, IL, IF, MF and EL compared to untreated controls (male rats): not significantly different; copulatory efficiency (CE) (male rats; CE=(IF/MF)x100, listed as C 30): 46.8%; mean intromission interval (MII) (male rats; listed as C 30): 49.2; intromission latency (IL) (male rats; listed as C 30): 215.3 s
15 | O=C(CN1CCC(Cc2ccccc2)CC1)NCc1ccc(F)cc1 [Compound C16, 2-(4-Benzylpiperidin-1-yl)-N-(4-fluorobenzyl)acetamide] | 484 ± 9.44 nM | 72 to 74 °C | – | – | – | – | – | – | – | – | –
16 | COc1ccc(NC(=O)CN2CCC(Cc3ccccc3)CC2)cc1 [Compound C15, 2-(4-Benzylpiperidin-1-yl)-N-(4-methoxyphenyl)acetamide] | 184 ± 3.6 nM | 61 to 63 °C | – | – | – | – | – | – | – | – | –
